For one data set, the system named is P388 murine leukemia. In words: Antitumor activity against P388 murine leukemia in CDF1 mice. Format: in vivo. The following applies: 1 x on day 1; for P 388 Dose producing the maximum % T/C: administered ip; for P 388 Maximum % T/C: median survival time treated/saline control x 100, ip, active if ≥125. The procedure:
(§1) All of the metal complexes were tested for antitumor activity against P388 murine leukemia. Selected compounds were also tested for antitumor activity against L1210 murine leukemia and a subline of L1210 murine leukemia resistant to cisplatin (L1210:DDP). CDF1 mice weighing 20 grams were inoculated intraperitoneally with 10^6 ascites cells of P388 leukemia, L1210 leukemia or L1210:DDP leukemia, depending on the test system being used. Drug administration was initiated the day following tumor implantation in all test systems. The complexes were administered at various dose levels by intraperitoneal injection. Groups of four to six mice were used for each dose level and they were treated with the complex on day one only. A group of ten saline treated control mice was included in each experiment. Cisplatin treated groups were included as a positive control in each experiment. The mice were weighed before treatment and again on day five or six and the average weight change used as a measure of toxicity. The animals were observed daily for mortality and the experiments terminated after 30 days. Antitumor activity was determined based on % T/C, which is the ratio of the median survival time of the drug treated group to the median survival time of the saline treated control group times 100. The saline treated mice usually have a median survival time of 9 days with P388 leukemia and 7 days with L1210 and L1210/DDP leukemia. A complex is considered active if it produces a % T/C of ≥125.
(§2) Tables II and IIa contain summaries of the evaluations of the compounds for antitumor activity against the murine leukemias. Listed for each compound is the maximum % T/C achieved and the dose producing that effect.
(§3) For the in vitro cytotoxicity studies the drugs were dissolved or suspended, depending on their solubility, in 0.9% NaCl solution. Occasionally, 5% dextrose in water or 10% DMSO in 0.9% NaCl was used. The compounds were prepared for in vivo treatment by dissolving or suspending, with the addition of minimal amounts of Tween 80, in water.

For data set [1], the system named is L1210 murine leukemia resistant to cisplatin (L1210:DDP). In words: Antitumor activity against cisplatin-resistant L1210 murine leukemia (L1210/DDP) in CDF1 mice. In kind it is in vivo. The following applies: cisplatin-resistant subline, day 1; for L1210/DDP Dose producing the maximum % T/C: administered ip; for L1210/DDP Max. % T/C: done concomitantly with L1210 test, ip, active if ≥125. As for the experimental part: as §1, §2, §3

Data set [2] has as its system B16-F10 murine melanoma cells. In words: In vitro cytotoxicity, B16-F10 murine melanoma cells (72 h, crystal violet). In kind it is cell-based. As for the experimental part:
(§4) Logarithmically growing cells were harvested by mild trypsinization and 4000 cells were added to each well of a 96-well microtiter plate (Costar). […] The cells were then treated with a metal complex or cisplatin and incubated for 72 hours. The plates were inverted and shaken to remove media, drug and detached cells. […] The fixative was removed, the plates air dried, stained with 0.0075% crystal violet for 15 minutes, washed twice and air dried. The stain was solubilized with 0.2 ml of 0.1 M AcOH/EtOH (1:1) and optical densities determined using a Dynatech MR600 microtiter plate reader. […] The compounds were prepared for in vivo treatment by dissolving or suspending, with the addition of minimal amounts of Tween 80, in water.

The test system of the next data set is B16 Melanoma. In words: Antitumor activity against B16 Melanoma in BDF1 mice. Format: in vivo. The following applies: for B 16 Dose producing the maximum % T/C: administered ip, days 1-9; for B 16 Maximum % T/C: median survival time vs saline control, ip, daily days 1-9, active if ≥125, figures separated by slashes are from separate experiments. The procedure: Several of the metal complexes were additionally evaluated for antitumor activity against B16 Melanoma. BDF1 mice, 10 per group, were inoculated intraperitoneally with 0.5 ml of a 10 percent (w:v) brei of B16 Melanoma. Intraperitoneal treatment with the metal complexes was initiated one day after implant and continued daily for a total of nine days. From 4 to 5 doses were tested for each compound under study. A saline treated control group and cisplatin treated groups were included in each experiment. The mice were observed daily for survivors and the experiments terminated after 60 days. […] The median survival time of the drug treated mice relative to that of the controls (% T/C) was used as a measure of antitumor activity.
Occasionally, 5% dextrose in water or 10% DMSO in 0.9% NaCl was used. The compounds were prepared for in vivo treatment by dissolving or suspending, with the addition of minimal amounts of Tween 80, in water.

The next data set has as its system L1210 murine leukemia. In words: Antitumor activity against L1210 murine leukemia in CDF1 mice. Format: in vivo. As to conditions: day 1; for L1210 Dose producing the maximum % T/C: administered ip; for L1210 Max. % T/C: median survival time treated/saline control x 100, ip, active if ≥125. As for the experimental part:
as §1, §2, §3

The test system of data set [3] is HCT-116 human colon carcinoma cells. In words: In vitro cytotoxicity, HCT-116 human colon carcinoma cells (72 h, crystal violet). Format: cell-based. As to conditions: HCT-116 cells. The procedure:
as §4

The conditions of data set [4]: Struck et al., J. Med. Chem., 9, 414 (1966); cited from earlier work.

The values that follow come from patent US4831170A, “Pharmaceutically active phospino-hydrocarbon-group VIII-metal complexes, antitumor compositions containing these complexes, and a process for preparing said compounds or antitumor compositions” (priority 1985, dated 1989).

The structures appear in SMILES notation.

On to `O=[N+]([O-])[O-].O=[N+]([O-])[O-].[Ni+2].c1ccc(P(CCP(c2ccccc2)c2ccccc2)c2ccccc2)cc1.c1ccc(P(CCP(c2ccccc2)c2ccccc2)c2ccccc2)cc1` [TNO 354, Bis[1,2-bis(diphenylphosphino)ethane]nickel(II) dinitrate], for which, in the data set on P388 murine leukemia, the “P 388 Dose producing the maximum % T/C” value stood at 50 mg/kg and the “P 388 Maximum % T/C” value turned out to be 139 % T/C. Further, in data set [1], the “L1210/DDP Dose producing the maximum % T/C” value is 80 mg/kg and the “L1210/DDP Max. % T/C” value came to 138 % T/C. The “IC 50 (concentration which inhibits cell growth by 50%), B 16” value in data set [2] is 4.1 µg/mL. Also, in the data set with B16 Melanoma, the “B 16 Dose producing the maximum % T/C” value was determined as 30 mg/kg/inj and the “B 16 Maximum % T/C” value was determined as 183 % T/C. In the data set with L1210 murine leukemia, the “L1210 Dose producing the maximum % T/C” value is 80 mg/kg and the “L1210 Max. % T/C” value was found to be 100 % T/C. Moreover, the “IC 50 (concentration which inhibits cell growth by 50%), HCT 116” value in data set [3] turned out to be 1.3 µg/mL.

As to `O=[N+]([O-])[O-].O=[N+]([O-])[O-].[Pd+2].c1ccc(P(CCP(c2ccccc2)c2ccccc2)c2ccccc2)cc1.c1ccc(P(CCP(c2ccccc2)c2ccccc2)c2ccccc2)cc1` [TNO 345, Bis[1,2-bis(diphenylphosphino)ethane]palladium(II) dinitrate], the “IC 50 (concentration which inhibits cell growth by 50%), B 16” value in data set [2] was 4.0 µg/mL. For the same molecule, in the data set with L1210 murine leukemia, the “L1210 Dose producing the maximum % T/C” value is given as 0,8 mg/kg and the “L1210 Max. % T/C” value is on record as 100 % T/C. Besides, in data set [3], the “IC 50 (concentration which inhibits cell growth by 50%), HCT 116” value came out at 19.6 µg/mL.

As for `O=[N+]([O-])[O-].O=[N+]([O-])[O-].[Co+2].c1ccc(P(CCP(c2ccccc2)c2ccccc2)c2ccccc2)cc1.c1ccc(P(CCP(c2ccccc2)c2ccccc2)c2ccccc2)cc1` [TNO 347, Bis[1,2-bis(diphenylphosphino)ethane]nitrato cobalt(II) nitrate], in the data set on P388 murine leukemia, the “P 388 Dose producing the maximum % T/C” value is listed as 100 mg/kg and the “P 388 Maximum % T/C” value was 161 % T/C. In data set [1], the “L1210/DDP Dose producing the maximum % T/C” value is 50 mg/kg and the “L1210/DDP Max. % T/C” value is 150 % T/C. Moreover, in data set [2], the “IC 50 (concentration which inhibits cell growth by 50%), B 16” value stood at 413 µg/mL. In the data set on B16 Melanoma, the “B 16 Dose producing the maximum % T/C” value came to 20 mg/kg/inj and the “B 16 Maximum % T/C” value was 171 % T/C. In the data set with L1210 murine leukemia, the “L1210 Dose producing the maximum % T/C” value turned out to be 100 mg/kg and the “L1210 Max. % T/C” value came out at 100 % T/C. Further, the “IC 50 (concentration which inhibits cell growth by 50%), HCT 116” value in data set [3] is more than 500 µg/mL.

Turning to `c1ccc(P(CCP(c2ccccc2)c2ccccc2)c2ccccc2)cc1` [1,2-bis-(diphenylphosphino)ethane, 1,2-bis(diphenylphosphino)ethane], the cytotoxic activity entry in data set [4] is recorded as “cytotoxic activity”.

For the molecule `C(=CP(c1ccccc1)c1ccccc1)P(c1ccccc1)c1ccccc1.C(=CP(c1ccccc1)c1ccccc1)P(c1ccccc1)c1ccccc1.[Cl-].[Cl-].[Fe+2]` [TNO 396, Bis[cis-1,2-bis(diphenylphosphino)ethylene]dichloro iron(II)], in the data set with P388 murine leukemia, the “P 388 Dose producing the maximum % T/C” value amounted to 200 mg/kg and the “P 388 Maximum % T/C” value came out at 150 % T/C. In data set [2], the “IC 50 (concentration which inhibits cell growth by 50%), B 16” value came to 452 µg/mL. Also, the “IC 50 (concentration which inhibits cell growth by 50%), HCT 116” value in data set [3] is 383 µg/mL.
